Results as given in patent US12629394B2, “Atlas of Choroid Plexus cell types and therapeutic and diagnostic uses thereof” (The Broad Institute, Inc., priority 2019, dated 2026).
“Also recorded” adds a separate entry of the source.

Assays:
choroid plexus, CSF = assay: Intravenous MTX in rats: ChP and CSF antioxidants; type: in vivo, rat
choroid plexus in vitro = assay: In vitro incubation of choroid plexus with MTX: ROS, mitochondria, SOD; type: cell-based, rodent
Procedure: (§1) Optimized assays for evaluating redox homeostasis and oxidative damage to cells, lipids, and DNA and found chemotherapy (MTX)-induced oxidative damage in human neurons in vitro and in rodent brain in vivo, and rodent ChP in vitro and in vivo was performed (FIG. 4; data not shown).

[1] = test system: human iPSC cortical neurons; assay: MTX exposure of cultured human cortical neurons (iPSCs): oxidative stress and damage; type: cell-based
Procedure: (§2) AAV2/5-SOD3 or control AAV2/5-GFP was injected into embryonic (E) 13.5 mouse lateral ventricles, and offspring were raised to 4-6 weeks of age. Applicants quantified choroid plexus-SOD3 expression (qRT-PCR), CSF-SOD protein levels (immunoblotting), and CSF-anti-oxidant capacity (ELISA). In parallel, Applicants tested if Methotrexate (MTX) exposure induced signatures of oxidative damage in cultured human cortical neurons (iPSCs), in patient CSF, and in vivo rodent brain. To test if supplemental choroid plexus-SOD3 protects the brain from acute oxidative stress, intravenous MTX was administered to mice previously transduced with AAV2/5-SOD3 or control AAV2/5-GFP, and analyzed cortex, hippocampus, and corpus callosum for markers of oxidative damage 48 hours later.
as §1

[2] = test system: CSF-SOD, CSF antioxidant capacity; assay: Patient CSF after MTX: SOD expression and antioxidant capacity; type: in vivo, human
Procedure: as §2, §1

[3] = test system: CSF-SOD, CSF antioxidant capacity; conditions: despite thiol supplementation (e.g. Leucovorin); cited from earlier work
[4] = test system: choroid plexus, CSF, brain; assay: Intravenous MTX in mice: ChP and CSF antioxidants, oxidative damage; type: in vivo, mouse
Procedure: as §2

[5] = mouse, MTX 4 mg/kg i.v., evaluation at 48 hours

- antioxidant availability in CSF (choroid plexus, CSF): reduced antioxidant availability in CSF
- SOD expression and secretion (choroid plexus in vitro; in vitro): decreases SOD expression and secretion
- mitochondrial respiration in choroid plexus (choroid plexus in vitro; in vitro): impairs mitochondrial respiration
- ROS production in ChP (choroid plexus in vitro; in vitro incubation): inducing ROS production
- mitochondrial membrane potential in ChP (choroid plexus in vitro; in vitro incubation): alters mitochondrial membrane potential
- CSF-SOD expression levels after vs. before treatment ([2]; Primary CNS lymphoma patient, high dose MTX, sample 1B vs. pre-treatment 1A): reduced CSF-SOD expression levels
- antioxidant capacity of human CSF ([2]; human CSF): diminishes antioxidant capacity
Compound: CN(Cc1cnc2nc(N)nc(N)c2n1)c1ccc(C(=O)N[C@@H](CCC(=O)O)C(=O)O)cc1 [MTX, Methotrexate]
- choroid plexus anti-oxidant gene transcription (choroid plexus, CSF): decreased choroid plexus anti-oxidant gene transcription
- oxidative stress in human iPSC cortical neurons ([1]; MTX 10 uM): triggers oxidative stress
- oxidative stress / markers of oxidative damage in cultured human neurons ([1]; human iPSC-derived neurons): induces oxidative stress; also recorded: induced markers of oxidative damage
- markers of oxidative damage in patient CSF ([2]; patient CSF): induced markers of oxidative damage
- anti-oxidant capacity of CSF from patients receiving chemotherapeutics [3]: reduced anti-oxidant capacity
- markers of oxidative damage in rodent brain ([4]; in vivo rodent brain): induced markers of oxidative damage
- antioxidant availability in CSF ([4]; mice, intravenous MTX): reduced antioxidant availability in CSF
- choroid plexus anti-oxidant gene transcription ([4]; mice, intravenous MTX): decreased choroid plexus anti-oxidant gene transcription
- SOD expression in vivo (CSF Sod3, SOD activity) [4, 5]: decreases SOD expression
- oxidative damage in vivo (8-OHdG) [4, 5]: increases oxidative damage
